Reference: the supplement of paper PMC5908809

Legend:
[1] = system: normal NK cells expanded with K562-aAPC; experiment: percent inhibition of viability; higher = more inhibition; details: 72 h, IL-2 2.5 ng/mL
Procedure: (§1)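 Drug sensitivity and resistance testing on K562-aAPC-expanded normal NK cells: 5 concentrations (10-fold steps over a 10,000-fold range), 72 h at 37 °C, viability by CellTiter-Glo normalised to DMSO and benzethonium chloride controls; DSS from the fitted curve.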

[2] = system: DERL-7 (IL-2 2.5 ng/mL); experiment: as above; details: 72 h
[3] = system: IMC-1 (IL-2 20 ng/mL); experiment: as above; details: 72 h
[4] = system: KAI3 (IL-2 2.5 ng/mL); experiment: as above; details: 72 h
[5] = system: KHYG-1 (IL-2 2.5 ng/mL); experiment: as above; details: 72 h
[6] = system: NK-92 (IL-2 2.5 ng/mL); experiment: as above; details: 72 h
[7] = system: NK-YS (IL-2 2.5 ng/mL); experiment: as above; details: 72 h
[8] = system: NKL (IL-2 2.5 ng/mL); experiment: as above; details: 72 h
[9] = system: SNK-6 (IL-2 2.5 ng/mL); experiment: as above; details: 72 h
[10] = system: YT (IL-2 2.5 ng/mL); experiment: as above; details: 72 h
[11] = system: normal primary NK cells, pool 1 (3 donors) (IL-2 2.5 ng/mL); experiment: as above; details: 72 h
[12] = system: normal primary NK cells, pool 1 (3 donors), resting (IL-2 0 ng/mL); experiment: as above; details: 72 h
[13] = system: normal primary NK cells, pool 2 (3 donors) (IL-2 2.5 ng/mL); experiment: as above; details: 72 h
[14] = system: normal primary NK cells, pool 3 (3 donors) (IL-2 2.5 ng/mL); experiment: as above; details: 72 h
[15] = system: normal NK cells expanded with K562-aAPC; experiment: drug sensitivity score (DSS) (DSS units); higher = more sensitive; extreme values may be limits of the assay; details: 72 h; IL-2 2.5 ng/mL
Procedure: as §1

[16] = system: DERL-7 (IL-2 2.5 ng/mL); experiment: as above; details: 72 h
[17] = system: IMC-1 (IL-2 20 ng/mL); experiment: as above; details: 72 h
[18] = system: KAI3 (IL-2 2.5 ng/mL); experiment: as above; details: 72 h
[19] = system: KHYG-1 (IL-2 2.5 ng/mL); experiment: as above; details: 72 h
[20] = system: NK-92 (IL-2 2.5 ng/mL); experiment: as above; details: 72 h
[21] = system: NK-YS (IL-2 2.5 ng/mL); experiment: as above; details: 72 h
[22] = system: NKL (IL-2 2.5 ng/mL); experiment: as above; details: 72 h
[23] = system: SNK-6 (IL-2 2.5 ng/mL); experiment: as above; details: 72 h
[24] = system: YT (IL-2 2.5 ng/mL); experiment: as above; details: 72 h
[25] = system: normal primary NK cells, pool 1 (3 donors) (IL-2 2.5 ng/mL); experiment: as above; details: 72 h
[26] = system: normal primary NK cells, pool 1 (3 donors), resting (IL-2 0 ng/mL); experiment: as above; details: 72 h
[27] = system: normal primary NK cells, pool 2 (3 donors) (IL-2 2.5 ng/mL); experiment: as above; details: 72 h
[28] = system: normal primary NK cells, pool 3 (3 donors) (IL-2 2.5 ng/mL); experiment: as above; details: 72 h

Cc1[nH]c(/C=C2\C(=O)Nc3ccccc32)c(C)c1CCC(=O)O [Orantinib] (max concentration tested 10000 nM)
percent inhibition of viability [%]
Details	1 nM	10 nM	100 nM	1000 nM	10000 nM
[1]	-1.66	-4.19	-1.4	6.04	9.43
[2]	1.12	-2.21	-6.87	-10.2	-8.27
[3]	-7.71	-4.44	-5.94	1.86	11
[4]	0.42	1.13	-2.39	7	29.4
[5]	-7.11	-2.97	-4.54	8.46	13.8
[6]	-10.9	-1.51	-13.1	11.1	13
[7]	-6.4	-2.5	-1.18	7.48	23.9
[8]	-19.2	-18.2	-1.7	6.18	14.6
[9]	-0.4	10.2	3.89	15.8	-2.27
[10]	-3.34	1.08	0.41	8.54	18.7
[11]	-0.7	9.63	7.39	4.16	9.93
[12]	-0.49	20.7	11.4	12.2	21.7
[13]	-0.89	-3.13	6.7	-0.82	5.48
[14]	-4.8	2.21	11.9	-1.68	9.39

Details	drug sensitivity score
[15]	0
[16]	0
[17]	0.04
[18]	2.32
[19]	0.65
[20]	0.62
[21]	1.86
[22]	0.67
[23]	0
[24]	1.23
[25]	0
[26]	3.33
[27]	0
[28]	0

O=C(Nc1ccc2[nH]nc(-c3ccncc3)c2c1)[C@@H]1CCN(CC(=O)N2CCN(c3ccc(-c4ncccn4)cc3)CC2)C1 (max concentration tested 10000 nM)
percent inhibition of viability [%]
Details	1 nM	10 nM	100 nM	1000 nM	10000 nM
[1]	2.7	-4.22	-5.95	2.93	20.3
[2]	-1.39	5.53	18	42.9	66.6
[3]	-5.11	-10.7	-8.77	-10.1	-4.64
[4]	-4.48	5.51	14.6	21	46.9
[5]	-2.48	-2.2	5.59	45.6	78.9
[6]	-6.06	-9.07	-16.6	-32.5	12.5
[7]	-4.51	-0.3	-0.1	9.9	40.6
[8]	-19.4	-14.6	3.59	55.7	71.8
[9]	-4.99	4.31	5.1	-34.4	15.8
[10]	-0.05	-0.51	-3.3	9.81	22.2
[11]	-5.21	-6.91	-5.12	11.2	47.8
[12]	4.46	-7.38	-1.31	12.8	58.7
[13]	-6.14	-5.45	0.32	5.74	15.6
[14]	-13.2	-18.2	-22.8	-10.8	20

Details	drug sensitivity score
[15]	1.01
[16]	10.3
[17]	0
[18]	5.52
[19]	9.89
[20]	0.01
[21]	3.58
[22]	10.9
[23]	0.08
[24]	1.87
[25]	4.28
[26]	5.24
[27]	0.76
[28]	0.32

Cc1cc(C(=O)NOCCO)c(Nc2ccc(I)cc2F)n(C)c1=O [AZD-8330] (max concentration tested 10000 nM)
percent inhibition of viability [%]
Details	1 nM	10 nM	100 nM	1000 nM	10000 nM
[1]	0.89	-5.14	2.35	1.49	5.67
[2]	10.5	19.5	39.8	44.6	49.1
[3]	-6.12	-4.24	-7.8	-3.57	1.54
[4]	6.6	16.3	20.9	25.5	21.5
[5]	4.36	28.4	50.2	60.9	59.9
[6]	-20.4	-31.8	-23.9	-11.1	-34
[7]	1.92	6.63	7.16	17	13.5
[8]	9.59	36	58.2	70.4	65
[9]	-15.8	-23.2	-25.2	-18.2	-8.48
[10]	1.8	1.88	-1.55	5.74	3.13
[11]	1.16	3.34	2.94	11.4	20.3
[12]	-12.3	-10.7	-6.76	10.4	33.8
[13]	-6.21	-3.9	6.25	1.91	6.61
[14]	-7.05	-12	-3.49	3.69	8.96

Details	drug sensitivity score
[15]	0
[16]	15.5
[17]	0
[18]	0
[19]	20.8
[20]	0
[21]	1.5
[22]	24.7
[23]	0
[24]	0
[25]	1.33
[26]	3.07
[27]	0
[28]	0

O=c1cc(N2CCOCC2)oc2c(-c3ccccc3)cccc12 (max concentration tested 100000 nM)
percent inhibition of viability [%]
Details	10 nM	100 nM	1000 nM	10000 nM	100000 nM
[1]	-2.73	-3.41	4.76	39.4	94.5
[2]	0.77	-1.71	9.97	64.1	97.4
[3]	-0.85	-3.31	-2.01	-5.98	86.2
[4]	-1.02	-1.63	6.02	25.9	59.6
[5]	-1.25	-1.33	4.59	30.1	89.5
[6]	-5.7	-3.95	-4.94	24	64.1
[7]	-4.69	-3.69	1.75	45.5	83.3
[8]	-14.3	-15.8	3.05	55.1	69.6
[9]	3.19	3.24	18.5	59.4	92.6
[10]	1.36	2.44	6.09	37.3	68.7
[11]	-1.05	3.02	7.28	35.5	97.6
[12]	-0.68	6.88	14.6	52.6	92.9
[13]	-8.94	-2.33	8.53	41.1	95.9
[14]	-5.94	-9.6	-2.64	20.7	96.5

Details	drug sensitivity score
[15]	9.96
[16]	13.6
[17]	4.34
[18]	6.11
[19]	8.95
[20]	6.84
[21]	10.1
[22]	10.7
[23]	13.6
[24]	8.24
[25]	9.7
[26]	12.2
[27]	10.1
[28]	8.63
